Values of other authors in article PMC9042378 (RSC Advances, 2021).

Tested on: Tyr
For `CCC(C)C(=O)c1c(O)c(Cc2c(O)c(C)c(O)c(C(=O)C(C)C)c2O)c(O)c2c1OC(C)(C)C=C2` (centres unmarked) [mallotophilippen A], the Tyr inhibition type is given as “Mixed inhibition”.
In the case of mallotophilippen B, the Tyr inhibition type is given as “Mixed inhibition”.
In the case of `O=C(O[C@@H]1Cc2c(O)cc(O)cc2O[C@@H]1c1ccc(O)c(O)c1)c1cc(O)c(O)c(O)c1` [epicatechin gallate], the Tyr inhibition type is listed as “Mixed inhibition”.
In the case of `O=C1c2c(O)cc(O)cc2O[C@H](c2cc(O)c(O)c(O)c2)[C@H]1O` [dihydromyricetin], the Tyr inhibition type is listed as “Mixed inhibition”.
In the case of `O=c1cc(CO)occ1O` [kojic acid], the Tyr inhibition type is given as “Mixed inhibition”.
